According to patent US20240174673A1, “Spirocycle Containing Pyridine Compounds” (Protego Biopharma, Inc., priority 2022, published 2024):

tested on: Recombinant amyloidogenic full length light chain protein WIL-FL T46L; experiment: Differential Scanning Fluorimetry (thermal shift) assay; type: binding; conditions: WIL-FL T46L protein and compound incubated at RT for 30 min before dye; compared to vehicle
Method: Differential Scanning Fluorimetry Assay
The stabilization effects the compounds have on the immunoglobulin light chain protein was quantitively measured using a thermal shift assay. Recombinant amyloidogenic full length light chain protein WIL-FL T46L was produced in E. coli, purified, and used in the assay. The Thermal Shift Protein Stability Kit from Biotium was used and the assay was done in 96-well Plates following the manufacturer's instructions. The protein and compounds were incubated at RT for 30 min before adding the dye and subjected to the thermal shift assay. The thermal stability (Tm) of each sample was then determined using standard curve fitting methods and compared to vehicle. Data are expressed as temperature shift: [Tm]compound−[Tm]vehicle.
The compounds provided herein induce shifts in the ranges below: • 0-0.5° C.=* • >0.5-1° C.=** • >1-1.5° C.=*** • >1.5-2.5° C.=**** • >2.5° C.=*****

Compound	DSF temperature shift: [Tm]compound−[Tm]vehicle
Cc1cc(N2CC[C@](C)(c3ccccc3)C2)cnc1C(=O)NCCN1CC2(CCN(c3nccn4ccnc34)CC2)NC1=O (stereo in doubt) [Compound 5, N-(2-(8-(imidazo[1,2-a]pyrazin-8-yl)-2-oxo-1,3,8-triazaspiro[4.5]decan-3-yl)ethyl)-3-methyl-5-(3-methyl-3-phenylpyrrolidin-1-yl)picolinamide]	***** (>2.5° C.=*****)
C[C@H](COc1cnc(C(=O)NCCN2CC3(CCN(c4nccn5ccnc45)CC3)NC2=O)c(Cl)c1)c1ccccc1 (stereo in doubt) [Compound 13, 3-chloro-N-(2-(8-(imidazo[1,2-a]pyrazin-8-yl)-2-oxo-1,3,8-triazaspiro[4.5]decan-3-yl)ethyl)-5-(2-phenylpropoxy)picolinamide]	***** (>2.5° C.=*****)
Cc1cc(N2CCC(C)(c3ccccc3)C2)cnc1C(=O)NCCN1CC2(CCNCC2)NC1=O (stereo not shown) [Compound 2, 3-methyl-5-(3-methyl-3-phenylpyrrolidin-1-yl)-N-(2-(2-oxo-1,3,8-triazaspiro[4.5]decan-3-yl)ethyl)picolinamide]	**** (>1.5-2.5° C.=****)
Cc1cc(N2CC[C@](C)(c3ccccc3)C2)cnc1C(=O)NCCN1CC2(CCN(c3nccn4cncc34)CC2)NC1=O [Compound 3]	***** (>2.5° C.=*****)
Cc1cc(N2CC[C@](C)(c3ccccc3)C2)cnc1C(=O)NCCN1CC2(CCN(c3nccn4cnnc34)CC2)NC1=O [Compound 4]	***** (>2.5° C.=*****)
Cc1cc(N2CC[C@@](C)(c3ccccc3)C2)cnc1C(=O)NCCN1CC2(CCN(c3nccn4ccnc34)CC2)NC1=O [Compound 6]	**** (>1.5-2.5° C.=****)
C[C@]1(c2ccccc2)CCN(c2cnc(C(=O)NCCN3CC4(CCN(c5nccn6ccnc56)CC4)NC3=O)c(Cl)c2)C1 [Compound 7, 3-chloro-N-(2-(8-(imidazo[1,2-a]pyrazin-8-yl)-2-oxo-1,3,8-triazaspiro[4.5]decan-3-yl)ethyl)-5-(3-methyl-3-phenylpyrrolidin-1-yl)picolinamide]	***** (>2.5° C.=*****)
C[C@]1(c2ccccc2)CCN(c2cnc(C(=O)NCCN3CC4(CCN(c5nccn6ccnc56)CC4)NC3=O)c(C(F)(F)F)c2)C1 [Compound 8]	**** (>1.5-2.5° C.=****)
C[C@]1(c2ccccc2)CCN(c2cnc(C(=O)NCCN3CC4(CCN(c5nccn6cnnc56)CC4)NC3=O)c(Cl)c2)C1 [Compound 9]	***** (>2.5° C.=*****)
CC[C@]1(c2ccccc2)CCN(c2cnc(C(=O)NCCN3CC4(CCN(c5nccn6ccnc56)CC4)NC3=O)c(Cl)c2)C1 [Compound 10]	***** (>2.5° C.=*****)
CC[C@]1(c2ccccc2)CCN(c2cnc(C(=O)NCCN3CC4(CCN(c5nccn6cnnc56)CC4)NC3=O)c(Cl)c2)C1 [Compound 11]	***** (>2.5° C.=*****)
C[C@H](COc1cnc(C(=O)NCCN2CC3(CCNCC3)NC2=O)c(Cl)c1)c1ccccc1 [Compound 12]	*** (>1-1.5° C.=***)
Cc1cc(N2CCC(C)(c3ccccc3)C2)cnc1C(=O)NCCN1CC2(CCN(c3nccn4ccnc34)CC2)NC1=O (stereo not shown) [Compound 14]	***** (>2.5° C.=*****)
CCOC(=O)c1ccc(N2CCC3(CC2)CN(CCNC(=O)c2ncc(OC[C@@H](C)c4ccccc4)cc2Cl)C(=O)N3)cn1 [Compound 15]	*** (>1-1.5° C.=***)
CC[C@]1(c2ccccc2)CCN(c2cnc(C(=O)NCCN3CC4(CCN(c5ccnc(C(=O)NC)c5)CC4)NC3=O)c(Cl)c2)C1 [Compound 16]	* (0-0.5° C.=*)
CC[C@]1(c2ccccc2)CCN(c2cnc(C(=O)NCCN3CC4(CCN(c5cncnc5)CC4)NC3=O)c(Cl)c2)C1 [Compound 17]	** (>0.5-1° C.=**)
COC(=O)c1ncc(N2CCC3(CC2)CN(CCNC(=O)c2ncc(OC[C@@H](C)c4ccccc4)cc2Cl)C(=O)N3)cc1F [Compound 18]	** (>0.5-1° C.=**)
COC(=O)c1ccc(N2CCC3(CC2)CN(CCNC(=O)c2ncc(OC[C@@H](C)c4ccccc4)cc2Cl)C(=O)N3)nn1 [Compound 19]	**** (>1.5-2.5° C.=****)
C[C@H](COc1cnc(C(=O)NCCN2CC3(CCN(c4cnc(C(=O)O)c(F)c4)CC3)NC2=O)c(Cl)c1)c1ccccc1 [Compound 20]	** (>0.5-1° C.=**)
C[C@H](COc1cnc(C(=O)NCCN2CC3(CCN(c4ccc(C(=O)O)nn4)CC3)NC2=O)c(Cl)c1)c1ccccc1 [Compound 21]	** (>0.5-1° C.=**)
C[C@H](COc1cnc(C(=O)NCCN2CC3(CCN(c4ccc(C(=O)O)nc4)CC3)NC2=O)c(Cl)c1)c1ccccc1 [Compound 22]	*** (>1-1.5° C.=***)
C[C@H](COc1cnc(C(=O)NCCN2CC3(CCN(c4nccn5cncc45)CC3)NC2=O)c(Cl)c1)c1ccccc1 [Compound 23]	***** (>2.5° C.=*****)
C[C@H](COc1cnc(C(=O)NCCN2CC3(CCN(c4cnccn4)CC3)NC2=O)c(Cl)c1)c1ccccc1 [Compound 24]	**** (>1.5-2.5° C.=****)
CC(=O)N1CCC2(CC1)CN(CCNC(=O)c1ncc(N3CC[C@](C)(c4ccccc4)C3)cc1C)C(=O)N2 [Compound 25]	**** (>1.5-2.5° C.=****)
Cc1cc(N2CCC(C)(c3ccccc3)C2)cnc1CCN1C(=O)NC2(CCN(c3ncccn3)CC2)C1=O (stereo not shown) [Compound 26]	* (0-0.5° C.=*)
